Measured values as given in patent US5283245A, “Heterocyclic thiazole derivatives and pharmaceutical compositions comprising said derivatives” (Imperial Chemical Industries PLC, priority 1989, dated 1994).
pIC50: −log10 of the molar value.

Tests used:
cyclooxygenase = target: T1, cyclooxygenase (Homo sapiens, UniProt P23219); assay: heparinised human blood challenged with calcium ionophore A23187, TxB2 radioimmunoassay (test b); assay type: cell-based; conditions: A23187 challenge
T1 construct: incubating a test compound with heparinised human blood; endogenous in cells; host or cells: heparinised whole human blood (platelets, by own knowledge)
Procedure: (§1) b) An in vitro assay system involving incubating a test compound with heparinised human blood, prior to challenge with the calcium ionophore A23187 and then indirectly measuring the inhibitory effects on 5-LO by assaying the amount of LTB4 using the specific radioimmunoassay described by Carey and Forder (F. Carey and R. A. Forder, Brit. J. Pharmacol. 1985, 84, 34P) which involves the use of a protein-LTB4 conjugate produced using the procedure of Young et alia (Prostaglandins, 1983, 26(4),605-613). The effects of a test compound on the enzyme cyclooxygenase (which is involved in the alternative metabolic pathway for arachidonic acid and gives rise to prostaglandins, thromboxanes and related metabolites) may be measured at the same time using the specific radioimmunoassay for thromboxane B2 (TxB2) described by Carey and Forder (see above). This test provides an indication of the effects of a test compound against 5-LO and also cyclooxygenase in the presence of blood cells and proteins. It permits the selectivity of the inhibitory effect on 5-LO or cyclooxygenase to be assessed.

5-LO [1] = target: T2, 5-LO (Rattus norvegicus, UniProt P12527); assay: ex vivo assay: administration of compound, blood collection, A23187 challenge, LTB4 radioimmunoassay (test c); assay type: in vivo; conditions: oral administration
T2 construct: blood collection, heparinisation, challenge with A23187 and radioimmunoassay of LTB4 and TxB2; endogenous in cells
T2 sequence (P12527 1-673): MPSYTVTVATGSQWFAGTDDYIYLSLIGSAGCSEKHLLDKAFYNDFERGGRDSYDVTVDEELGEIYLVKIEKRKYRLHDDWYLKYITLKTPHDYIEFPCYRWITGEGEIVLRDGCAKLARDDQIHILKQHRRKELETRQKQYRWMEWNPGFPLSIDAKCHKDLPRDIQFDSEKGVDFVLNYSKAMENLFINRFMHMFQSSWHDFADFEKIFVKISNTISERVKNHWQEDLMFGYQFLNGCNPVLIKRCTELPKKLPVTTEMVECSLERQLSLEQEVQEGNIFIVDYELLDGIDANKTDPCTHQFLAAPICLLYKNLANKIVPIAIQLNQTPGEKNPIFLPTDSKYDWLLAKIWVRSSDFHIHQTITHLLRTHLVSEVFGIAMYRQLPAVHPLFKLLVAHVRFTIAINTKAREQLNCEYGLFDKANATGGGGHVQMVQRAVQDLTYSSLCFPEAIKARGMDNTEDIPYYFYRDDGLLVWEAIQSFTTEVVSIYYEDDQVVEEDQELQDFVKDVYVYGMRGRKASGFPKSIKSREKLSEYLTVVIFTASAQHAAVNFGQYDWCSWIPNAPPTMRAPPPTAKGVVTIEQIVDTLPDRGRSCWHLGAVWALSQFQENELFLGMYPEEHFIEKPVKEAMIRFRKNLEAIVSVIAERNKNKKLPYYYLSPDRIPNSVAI

5-LO [2] = target: T3, 5-LO (Homo sapiens, UniProt P09917); assay: heparinised human blood challenged with calcium ionophore A23187, LTB4 radioimmunoassay (test b); assay type: cell-based; conditions: A23187 challenge
T3 construct: incubating a test compound with heparinised human blood; endogenous in cells; host or cells: heparinised whole human blood (leukocytes, by own knowledge)
T3 sequence (P09917 1-674): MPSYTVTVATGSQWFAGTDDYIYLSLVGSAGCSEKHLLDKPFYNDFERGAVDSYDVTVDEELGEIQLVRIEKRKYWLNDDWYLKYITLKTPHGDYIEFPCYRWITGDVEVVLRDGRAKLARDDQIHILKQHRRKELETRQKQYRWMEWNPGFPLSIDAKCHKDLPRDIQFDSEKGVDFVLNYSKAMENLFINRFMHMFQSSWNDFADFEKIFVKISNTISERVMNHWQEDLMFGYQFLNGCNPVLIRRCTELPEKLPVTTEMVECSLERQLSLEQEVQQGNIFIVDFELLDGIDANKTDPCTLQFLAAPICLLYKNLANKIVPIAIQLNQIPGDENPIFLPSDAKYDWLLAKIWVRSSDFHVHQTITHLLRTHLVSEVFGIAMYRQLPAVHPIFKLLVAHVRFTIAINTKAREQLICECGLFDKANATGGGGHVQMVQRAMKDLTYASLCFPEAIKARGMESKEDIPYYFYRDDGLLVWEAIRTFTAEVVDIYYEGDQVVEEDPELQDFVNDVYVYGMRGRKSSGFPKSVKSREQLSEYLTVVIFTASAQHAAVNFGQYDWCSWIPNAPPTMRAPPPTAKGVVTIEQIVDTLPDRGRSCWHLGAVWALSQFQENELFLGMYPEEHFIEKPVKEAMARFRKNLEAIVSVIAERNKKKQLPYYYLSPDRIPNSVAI
Procedure: as §1

T1 sequence (P23219 24-599): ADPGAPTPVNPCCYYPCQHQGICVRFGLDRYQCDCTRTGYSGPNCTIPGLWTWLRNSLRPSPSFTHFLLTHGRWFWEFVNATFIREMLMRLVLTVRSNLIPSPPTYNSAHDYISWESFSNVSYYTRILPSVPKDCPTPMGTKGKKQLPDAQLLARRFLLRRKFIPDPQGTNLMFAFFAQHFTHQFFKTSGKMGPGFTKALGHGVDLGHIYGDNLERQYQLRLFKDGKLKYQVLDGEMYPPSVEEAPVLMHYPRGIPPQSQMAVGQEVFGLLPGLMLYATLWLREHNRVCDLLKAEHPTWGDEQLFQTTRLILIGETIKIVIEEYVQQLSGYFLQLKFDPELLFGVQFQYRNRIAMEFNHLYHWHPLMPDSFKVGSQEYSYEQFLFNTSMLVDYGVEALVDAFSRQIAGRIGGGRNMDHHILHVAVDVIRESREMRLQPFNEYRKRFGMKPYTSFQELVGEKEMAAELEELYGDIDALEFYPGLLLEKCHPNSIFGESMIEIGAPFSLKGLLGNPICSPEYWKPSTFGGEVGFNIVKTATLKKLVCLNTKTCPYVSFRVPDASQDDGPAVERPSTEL

pIC50 (cyclooxygenase): < 4.40
ED50 (5-LO [1]): 50 mg/kg
pIC50 (5-LO [2]): 6.15
Compound: CCC(OC)(c1cccc(OCC#Cc2ccccn2)c1)c1nccs1 (stereo not drawn) [2-[1-[3-(3-(2-pyridyl)prop-2-yn-1-yloxy)phenyl]-1-methoxypropyl]thiazole]
